Results taken from US20250248973A1, “CANNABINOID RECEPTOR 1 ANTAGONISTS/INVERSE AGONISTS AND USES THEREOF” (Corbus Pharmaceuticals, Inc., priority 2022, published 2025).

Tests used:
[1] = molecular target: Human CB1 Receptor-1 (hCB1) (Homo sapiens (Human), UniProt P21554); assay: hCB1 Gai cyclic AMP (cAMP) TR-FRET assay, antagonism of EC80 CP55940 with forskolin; type: cell-based; conditions: hCB1 cells, 30 min pre-incubation
Method: (§1) Example 3. Biochemical Methods Human CB1 Receptor-1 (hCB1) and Human CB1 Receptor-1b (hCBib)
(§2) hCB1/hCB1 b Gai Cyclic AMP (cAMP) Assays: Cells were seeded in a 384-well plate at an appropriate density from frozen cells. The cAMP assays were performed according to the manufacturer's protocol using MULTISCREEN™ TR-FRET cAMP 1.0 No Wash Assay Kit. Cells (hCB1 or hCB1 b) were pre-incubated with customer compounds for 30 minutes at rt followed by addition of EC80 CP55940 concentration and Forskolin. Cells were then incubated for 20 minutes at 37C. The reaction was terminated by sequentially adding sequentially adding MULTISCREEN™ Eu-labeled cAMP and MULTISCREEN™ 650-labeled anti-cAMP antibody in lysis buffer. The plate was then incubated at rt for 30 minutes before reading fluorescent emissions at 620 nm and 665 with excitation at 314 nm on FlexStation III (Molecular Devices). The results are shown in Table 2 (“***” denotes an IC50<100 nM; “**” denotes an IC50 between 100 nM and 500 nM, and “*” denotes an IC50>500 nM).

[2] = molecular target: Human CB1 Receptor-1b (hCB1b) (Homo sapiens (Human), UniProt P21554); assay: hCB1b Gai cyclic AMP (cAMP) TR-FRET assay, antagonism of EC80 CP55940 with forskolin; type: cell-based; conditions: hCB1b cells, 30 min pre-incubation, read-out: CB1b IC50
Chain of Human CB1 Receptor-1b (hCB1b) (P21554 other isoform, or with tags, fused parts or gaps): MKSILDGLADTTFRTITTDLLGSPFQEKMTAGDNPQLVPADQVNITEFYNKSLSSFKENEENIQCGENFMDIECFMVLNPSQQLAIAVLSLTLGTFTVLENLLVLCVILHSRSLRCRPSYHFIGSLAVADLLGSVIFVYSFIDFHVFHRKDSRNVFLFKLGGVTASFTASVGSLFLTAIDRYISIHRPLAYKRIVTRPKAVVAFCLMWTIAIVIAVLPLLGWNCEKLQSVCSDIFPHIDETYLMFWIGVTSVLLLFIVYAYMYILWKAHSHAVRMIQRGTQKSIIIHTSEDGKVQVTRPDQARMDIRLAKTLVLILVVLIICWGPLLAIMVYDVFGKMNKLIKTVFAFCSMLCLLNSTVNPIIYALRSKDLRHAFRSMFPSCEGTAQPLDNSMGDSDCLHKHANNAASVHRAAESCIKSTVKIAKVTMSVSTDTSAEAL
Method: as §1, §2

Chain of Human CB1 Receptor-1 (hCB1) (P21554 whole entry): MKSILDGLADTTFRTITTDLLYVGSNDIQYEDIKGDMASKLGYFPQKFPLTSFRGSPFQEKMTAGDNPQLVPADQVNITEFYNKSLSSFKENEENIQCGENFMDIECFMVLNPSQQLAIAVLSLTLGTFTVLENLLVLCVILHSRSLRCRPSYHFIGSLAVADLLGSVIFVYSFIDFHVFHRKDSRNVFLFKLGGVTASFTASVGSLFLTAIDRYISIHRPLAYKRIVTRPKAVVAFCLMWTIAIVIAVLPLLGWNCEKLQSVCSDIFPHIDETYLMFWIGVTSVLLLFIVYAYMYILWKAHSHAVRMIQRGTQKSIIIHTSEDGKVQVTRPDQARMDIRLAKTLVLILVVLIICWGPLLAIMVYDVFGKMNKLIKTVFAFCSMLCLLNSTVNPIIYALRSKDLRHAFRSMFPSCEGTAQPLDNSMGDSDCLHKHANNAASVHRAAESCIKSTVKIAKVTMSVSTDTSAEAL

| SMILES | IC50 [1] [µM] | IC50 [2] [µM] |
| --- | --- | --- |
| Cn1ncc(S(=O)(=O)N=C(NCCS(N)(=O)=O)N2C[C@H](c3ccccc3)C(c3ccc(Cl)cc3)=N2)n1 [Compound 73, (S)-3-(4-chlorophenyl)-N′-((2-methyl-2H-1,2,3-triazol-4-yl)sulfonyl)-4-phenyl-N-(2-sulfamoylethyl)-4,5-dihydro-1H-pyrazole-1-carboximidamide] | 0.1 to 0.5 | 0.1 to 0.5 |
| CN(C)S(=O)(=O)CCNC(=NS(=O)(=O)c1ccc(Cl)cc1)N1C[C@H](c2ccccc2)C(c2ccc(F)cc2)=N1 [Compound 161, (S,E)-N′-((4-chlorophenyl)sulfonyl)-N-(2-(N,N-dimethylsulfamoyl)ethyl)-3-(4-fluorophenyl)-4-phenyl-4,5-dihydro-1H-pyrazole-1-carboximidamide] | 0.1 to 0.5 | 0.1 to 0.5 |
| NS(=O)(=O)O[C@H]1C[C@@H](N/C(=N\S(=O)(=O)c2ccc(C(F)(F)F)cc2)N2C[C@@H](c3ccccc3)C(c3ccc(Cl)cc3)=N2)C1 [Compound 228, (1R,3s)-3-((R,E)-3-(4-chlorophenyl)-4-phenyl-N′-((4-(trifluoromethyl)phenyl)sulfonyl)-4,5-dihydro-1H-pyrazole-1-carboximidamido)cyclobutyl sulfamate] | > 0.5 | < 0.1 |
| CC(CN/C(=N\S(=O)(=O)c1ccc(Cl)cc1)N1C[C@H](c2ccccc2)C(c2ccc(Cl)cc2)=N1)NS(N)(=O)=O (stereo partly drawn) [Compound 185, (4S,E)-3-(4-chlorophenyl)-N′-((4-chlorophenyl)sulfonyl)-4-phenyl-N-(2-(sulfamoylamino)propyl)-4,5-dihydro-1H-pyrazole-1-carboximidamide] | 0.1 to 0.5 | < 0.1 |
| C[C@H](CN/C(=N\S(=O)(=O)c1ccc(F)cc1)N1C[C@H](c2ccccc2)C(c2ccc(F)cc2)=N1)S(N)(=O)=O [Compound 53, (S,E)-3-(4-fluorophenyl)-N′-((4-fluorophenyl)sulfonyl)-4-phenyl-N-((R)-2-sulfamoylpropyl)-4,5-dihydro-1H-pyrazole-1-carboximidamide] | < 0.1 | < 0.1 |
| C[C@H](CN/C(=N\S(=O)(=O)c1ccc(F)cc1)N1C[C@H](c2ccccc2)C(c2ccc(Cl)cc2)=N1)S(N)(=O)=O [Compound 14, (S,E)-3-(4-chlorophenyl)-N′-((4-fluorophenyl)sulfonyl)-4-phenyl-N-((R)-2-sulfamoylpropyl)-4,5-dihydro-1H-pyrazole-1-carboximidamide] | < 0.1 | < 0.1 |
| NS(=O)(=O)[C@H]1C[C@H](N/C(=N/S(=O)(=O)c2ccc(Cl)cc2)N2C[C@H](c3ccccc3)C(c3ccc(F)cc3)=N2)C1 (single isomer, unassigned) [Compound 127] | 0.1 to 0.5 | 0.1 to 0.5 |
| NS(=O)(=O)[C@@H]1CC[C@H](N/C(=N/S(=O)(=O)c2ccc(Cl)cc2)N2C[C@H](c3ccccc3)C(c3ccc(Cl)cc3)=N2)C1 [Compound 143, (S,Z)-3-(4-chlorophenyl)-N′-((4-chlorophenyl)sulfonyl)-4-phenyl-N-((1S,3R)-3-sulfamoylcyclopentyl)-4,5-dihydro-1H-pyrazole-1-carboximidamide] | < 0.1 | < 0.1 |
| C[C@@H](CN/C(=N\S(=O)(=O)c1ccc(Cl)cc1)N1C[C@H](c2ccccc2)C(c2ccc(Cl)cc2)=N1)S(N)(=O)=O [Compound 6, (S,E)-3-(4-chlorophenyl)-N′-((4-chlorophenyl)sulfonyl)-4-phenyl-N-((S)-2-sulfamoylpropyl)-4,5-dihydro-1H-pyrazole-1-carboximidamide] | 0.1 to 0.5 | < 0.1 |
| C[C@@H](CN/C(=N\S(=O)(=O)c1ccc(F)cc1)N1C[C@H](c2ccccc2)C(c2ccc(F)cc2)=N1)S(N)(=O)=O [Compound 54, (S,E)-3-(4-fluorophenyl)-N′-((4-fluorophenyl)sulfonyl)-4-phenyl-N-((S)-2-sulfamoylpropyl)-4,5-dihydro-1H-pyrazole-1-carboximidamide] | < 0.1 | < 0.1 |
| NS(=O)(=O)[C@H]1CC[C@@H](N/C(=N/S(=O)(=O)c2ccc(Cl)cc2)N2C[C@H](c3ccccc3)C(c3ccc(F)cc3)=N2)C1 [Compound 147, (S,Z)-N′-((4-chlorophenyl)sulfonyl)-3-(4-fluorophenyl)-4-phenyl-N-((1R,3S)-3-sulfamoylcyclopentyl)-4,5-dihydro-1H-pyrazole-1-carboximidamide] | 0.1 to 0.5 | 0.1 to 0.5 |
| NS(=O)(=O)C1CCN(/C(=N/S(=O)(=O)c2ccc(Cl)cc2)N2C[C@H](c3ccccc3)C(c3ccc(Cl)cc3)=N2)CC1 [Compound 113, (S,Z)-1-((3-(4-chlorophenyl)-4-phenyl-4,5-dihydro-1H-pyrazol-1-yl)(((4-chlorophenyl)sulfonyl)imino)methyl)piperidine-4-sulfonamide] | > 0.5 | > 0.5 |
| NS(=O)(=O)[C@H]1C[C@@H](N/C(=N/S(=O)(=O)c2ccc(Cl)cc2)N2C[C@H](c3ccccc3)C(c3ccc(Cl)cc3)=N2)C1 (single isomer, unassigned) [Compound 116] | 0.1 to 0.5 | 0.1 to 0.5 |
| C[C@@H](CS(N)(=O)=O)NC(=NS(=O)(=O)c1ccc(Cl)cc1)N1C[C@H](c2ccccc2)C(c2ccc(F)cc2)=N1 (single isomer, unassigned) [Compound 61] | 0.1 to 0.5 | 0.1 to 0.5 |
| CC(C)(CN/C(=N\S(=O)(=O)c1ccc(Cl)cc1)N1C[C@H](c2ccccc2)C(c2ccc(Cl)cc2)=N1)CS(N)(=O)=O [Compound 87, (S,E)-3-(4-chlorophenyl)-N′-((4-chlorophenyl)sulfonyl)-N-(2,2-dimethyl-3-sulfamoylpropyl)-4-phenyl-4,5-dihydro-1H-pyrazole-1-carboximidamide] | 0.1 to 0.5 | 0.1 to 0.5 |
| NS(=O)(=O)CCN/C(=N\S(=O)(=O)c1ccc(Cl)cc1)N1C[C@H](c2ccccc2)C(c2ccc(F)cc2)=N1 [Compound 45, (S,E)-N′-((4-chlorophenyl)sulfonyl)-3-(4-fluorophenyl)-4-phenyl-N-(2-sulfamoylethyl)-4,5-dihydro-1H-pyrazole-1-carboximidamide] | < 0.1 | < 0.1 |
| C#Cc1ccc(S(=O)(=O)N=C(NCCS(N)(=O)=O)N2C[C@H](c3ccccc3)C(c3ccc(F)cc3)=N2)cc1 [Compound 59, (S)-N′-((4-ethynylphenyl)sulfonyl)-3-(4-fluorophenyl)-4-phenyl-N-(2-sulfamoylethyl)-4,5-dihydro-1H-pyrazole-1-carboximidamide] | 0.1 to 0.5 | < 0.1 |
| NS(=O)(=O)CCNC(=NS(=O)(=O)c1ccccc1Cl)N1C[C@H](c2ccccc2)C(c2ccc(Cl)cc2)=N1 [Compound 29, (S)-3-(4-chlorophenyl)-N′-((2-chlorophenyl)sulfonyl)-4-phenyl-N-(2-sulfamoylethyl)-4,5-dihydro-1H-pyrazole-1-carboximidamide] | < 0.1 | < 0.1 |
| NS(=O)(=O)NC1(CN/C(=N\S(=O)(=O)c2ccc(C(F)(F)F)cc2)N2C[C@H](c3ccccc3)C(c3ccc(Cl)cc3)=N2)CC1 [Compound 235, (S,E)-3-(4-chlorophenyl)-4-phenyl-N-((1-(sulfamoylamino)cyclopropyl)methyl)-N′-((4-(trifluoromethyl)phenyl)sulfonyl)-4,5-dihydro-1H-pyrazole-1-carboximidamide] | 0.1 to 0.5 | < 0.1 |
| CN1CCN(S(=O)(=O)CCN/C(=N\S(=O)(=O)c2ccc(F)cc2)N2C[C@H](c3ccccc3)C(c3ccc(F)cc3)=N2)CC1 [Compound 165, (S,E)-3-(4-fluorophenyl)-N′-((4-fluorophenyl)sulfonyl)-N-(2-((4-methylpiperazin-1-yl)sulfonyl)ethyl)-4-phenyl-4,5-dihydro-1H-pyrazole-1-carboximidamide] | < 0.1 | 0.1 to 0.5 |
| NS(=O)(=O)CCNC(=NS(=O)(=O)c1cccc(C(F)(F)F)c1)N1C[C@H](c2ccccc2)C(c2ccc(Cl)cc2)=N1 [Compound 27, (S)-3-(4-chlorophenyl)-4-phenyl-N-(2-sulfamoylethyl)-N′-((3-(trifluoromethyl)phenyl)sulfonyl)-4,5-dihydro-1H-pyrazole-1-carboximidamide] | < 0.1 | < 0.1 |
| CN(CCNS(N)(=O)=O)/C(=N\S(=O)(=O)c1ccc(Cl)cc1)N1C[C@H](c2ccccc2)C(c2ccc(Cl)cc2)=N1 [Compound 173, (S,E)-3-(4-chlorophenyl)-N′-((4-chlorophenyl)sulfonyl)-N-methyl-4-phenyl-N-(2-(sulfamoylamino)ethyl)-4,5-dihydro-1H-pyrazole-1-carboximidamide] | 0.1 to 0.5 | 0.1 to 0.5 |
| NS(=O)(=O)O[C@H]1C[C@@H](N/C(=N\S(=O)(=O)c2ccc(Cl)cc2)N2C[C@@H](c3ccccc3)C(c3ccc(Cl)cc3)=N2)C1 (single isomer, unassigned) [Compound 226] | > 0.5 | < 0.1 |
| C#Cc1ccc(S(=O)(=O)N=C(NCCS(N)(=O)=O)N2C[C@H](c3ccccc3)C(c3ccc(Cl)cc3)=N2)cc1 [Compound 21, (S)-3-(4-chlorophenyl)-N′-((4-ethynylphenyl)sulfonyl)-4-phenyl-N-(2-sulfamoylethyl)-4,5-dihydro-1H-pyrazole-1-carboximidamide] | < 0.1 | < 0.1 |
